Laboratory results: US6420330B1, “Use of quaternary carboxylic acid alkanolamine ester salts as microbicide agents” (Cognis Deutschland GmbH, priority 1997, dated 2002)

Legend:
Type in all cases: cell-based
Enterococcus faecium = assay: DGHM suspension test, other bacteria and fungi
Procedure: (§1) The effectiveness of the compound to be tested was determined by the suspension test in accordance with the guidelines of the Deutsche Gesellschaft for Hygiene and Mikrobiologie (DGHM). Test solutions containing quatemary carboxylic acid alkanolamine ester salts in the quantities shown in the Tables of 50, 100, 200, 400 and 800 mg/l were prepared using water with a hardness of 17° dH and optionally isopropanol. At room temperatures, quantities of 0.1 ml test germ suspension were pipetted into test tubes containing 10 ml of the test solutions described above and mixed. After various contact times of 5, 15, 30 and 60 minutes, 1 ml of material was taken from the test tubes by pipette and transferred to 9 ml inactivator solution (inactivators: 3.0% Tween, 0.3% lecithin, 0.1% histidine). After in activation for at least 5 and at most 30 minutes, the living germ count was determined by plating out onto casein peptone-soybean flour peptone (CaSo)-agar plates. Using a spiral plater, the inactivating mixture was directly plated out onto CaSo-agar. The samples were incubated for 24 to 72 hours at 37° C. and macroscopically evaluated for growth. The destruction time or the residual germ count was determined in this way. The germ count of an unchallenged water control is related to the germ count of the inactivated test solution taking the dilution into account. The higher the value, the better the microbicidal effect. The symbol < means that the logarithmic reductuon factor is below the indicated value or, in the case of the symbol >, above the indicated value. The abbreviation CU stands for “concentration used”. Methyl triethanolammonium dioctanoic acid ester methosulfate was tested as in A) against the bacteria

Escherichia coli = assay: DGHM suspension test, other bacteria and fungi
Procedure: as §1

Microsporum gypseum = assay: DGHM suspension test, other bacteria and fungi
Procedure: as §1

Salmonella enteritidis = assay: DGHM suspension test, other bacteria and fungi
Procedure: as §1

[1] = system: Trichophyton mentagrophytes; assay: DGHM suspension test, other bacteria and fungi
Procedure: as §1

[2] = system: Candida albicans ATCC 10231; assay: DGHM suspension test, microbicidal activity
Procedure, shortened: (§2)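 DGHM suspension test at room temperature: 0.1 ml germ suspension into 10 ml test solution (50–800 mg/l in 17° dH water, optionally isopropanol). After 5, 15, 30 and 60 minutes contact, samples inactivated (Tween/lecithin/histidine), plated on CaSo-agar, incubated 24–72 hours at 37° C. Log reduction versus unchallenged water control.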

[3] = system: Pseudomonas aeruginosa ATCC 15442; assay: DGHM suspension test, microbicidal activity
Procedure, shortened: as §2

[4] = system: Staphylococcus aureus ATCC 6538; assay: DGHM suspension test, microbicidal activity
Procedure, shortened: as §2

[5] = CU 50 mg/l, contact time 5 mins.
[6] = CU 50 mg/l, contact time 15 mins.
[7] = CU 50 mg/l, contact time 30 mins.
[8] = CU 50 mg/l, contact time 60 mins.
[9] = CU 100 mg/l, contact time 5 mins.
[10] = CU 100 mg/l, contact time 15 mins.
[11] = CU 100 mg/l, contact time 30 mins.
[12] = CU 100 mg/l, contact time 60 mins.
[13] = CU 200 mg/l, contact time 5 mins.
[14] = CU 200 mg/l, contact time 15 mins.
[15] = CU 200 mg/l, contact time 30 mins.
[16] = CU 200 mg/l, contact time 60 mins.
[17] = CU 400 mg/l, contact time 5 mins.
[18] = CU 400 mg/l, contact time 15 mins.
[19] = CU 400 mg/l, contact time 30 mins.
[20] = CU 400 mg/l, contact time 60 mins.
[21] = CU 800 mg/l, contact time 5 mins.
[22] = CU 800 mg/l, contact time 15 mins.
[23] = CU 800 mg/l, contact time 30 mins.
[24] = CU 800 mg/l, contact time 60 mins.

Question: What does the source list for `CCCCCCCC(=O)OCC[N+](C)(CCO)CCOC(=O)CCCCCCC.COS(=O)(=O)[O-]` [Example 11, Methyl triethanolammonium dioctanoic acid ester methosulfate]?
Answer: logarithmic reduction rate (Enterococcus faecium; 50 ppm, 5 Mins.): >6.3; logarithmic reduction rate (Enterococcus faecium; 50 ppm, 15 Mins.): >5.88; logarithmic reduction rate (Enterococcus faecium; 50 ppm, 60 Mins.): >5.96; logarithmic reduction rate (Enterococcus faecium; 100 ppm, 5 Mins.): >6.3; logarithmic reduction rate (Enterococcus faecium; 100 ppm, 15 Mins.): >5.88; logarithmic reduction rate (Enterococcus faecium; 100 ppm, 60 Mins.): >5.96; logarithmic reduction rate (Enterococcus faecium; 200 ppm, 5 Mins.): >6.3; logarithmic reduction rate (Enterococcus faecium; 200 ppm, 15 Mins.): >5.88; logarithmic reduction rate (Enterococcus faecium; 200 ppm, 60 Mins.): >5.96; logarithmic reduction rate (Enterococcus faecium; 400 ppm, 5 Mins.): >6.3; logarithmic reduction rate (Enterococcus faecium; 400 ppm, 15 Mins.): >5.88; logarithmic reduction rate (Enterococcus faecium; 400 ppm, 60 Mins.): >5.96; logarithmic reduction rate (Escherichia coli; 50 ppm, 5 Mins.): 4.12; logarithmic reduction rate (Escherichia coli; 50 ppm, 15 Mins.): >5.62; logarithmic reduction rate (Escherichia coli; 50 ppm, 60 Mins.): >5.76; logarithmic reduction rate (Escherichia coli; 100 ppm, 5 Mins.): >5.58; logarithmic reduction rate (Escherichia coli; 100 ppm, 15 Mins.): >5.62; logarithmic reduction rate (Escherichia coli; 100 ppm, 60 Mins.): >5.76; logarithmic reduction rate (Escherichia coli; 200 ppm, 5 Mins.): >5.58; logarithmic reduction rate (Escherichia coli; 200 ppm, 15 Mins.): >5.62; logarithmic reduction rate (Escherichia coli; 200 ppm, 60 Mins.): >5.76; logarithmic reduction rate (Escherichia coli; 400 ppm, 5 Mins.): >5.58; logarithmic reduction rate (Escherichia coli; 400 ppm, 15 Mins.): >5.62; logarithmic reduction rate (Escherichia coli; 400 ppm, 60 Mins.): >5.76; logarithmic reduction rate (Microsporum gypseum; 50 ppm, 5 Mins.): >3.52; logarithmic reduction rate (Microsporum gypseum; 50 ppm, 15 Mins.): >3.58; logarithmic reduction rate (Microsporum gypseum; 50 ppm, 60 Mins.): >3.62; logarithmic reduction rate (Microsporum gypseum; 100 ppm, 5 Mins.): >3.52; logarithmic reduction rate (Microsporum gypseum; 100 ppm, 15 Mins.): >3.58; logarithmic reduction rate (Microsporum gypseum; 100 ppm, 60 Mins.): >3.62; logarithmic reduction rate (Microsporum gypseum; 200 ppm, 5 Mins.): >3.52; logarithmic reduction rate (Microsporum gypseum; 200 ppm, 15 Mins.): >3.58; logarithmic reduction rate (Microsporum gypseum; 200 ppm, 60 Mins.): >3.62; logarithmic reduction rate (Microsporum gypseum; 400 ppm, 5 Mins.): >3.52; logarithmic reduction rate (Microsporum gypseum; 400 ppm, 15 Mins.): >3.58; logarithmic reduction rate (Microsporum gypseum; 400 ppm, 60 Mins.): >3.62; killing of the fungus Microsporum gypseum (Microsporum gypseum; concentration of 50 mg/l, shortest contact time): almost completely killed off; logarithmic reduction rate (Salmonella enteritidis; 50 ppm, 5 Mins.): <1.8; logarithmic reduction rate (Salmonella enteritidis; 50 ppm, 15 Mins.): 3.29; logarithmic reduction rate (Salmonella enteritidis; 50 ppm, 60 Mins.): 3.67; logarithmic reduction rate (Salmonella enteritidis; 100 ppm, 5 Mins.): 3.96; logarithmic reduction rate (Salmonella enteritidis; 100 ppm, 15 Mins.): 5.12; logarithmic reduction rate (Salmonella enteritidis; 100 ppm, 60 Mins.): >5.76; logarithmic reduction rate (Salmonella enteritidis; 200 ppm, 5 Mins.): 4.88; logarithmic reduction rate (Salmonella enteritidis; 200 ppm, 15 Mins.): >5.77; logarithmic reduction rate (Salmonella enteritidis; 200 ppm, 60 Mins.): >5.76; logarithmic reduction rate (Salmonella enteritidis; 400 ppm, 5 Mins.): >5.8; logarithmic reduction rate (Salmonella enteritidis; 400 ppm, 15 Mins.): >5.72; logarithmic reduction rate (Salmonella enteritidis; 400 ppm, 60 Mins.): >5.76; logarithmic reduction rate ([1]; 50 ppm, 5 Mins.): 0.34; logarithmic reduction rate ([1]; 50 ppm, 15 Mins.): 0.95; logarithmic reduction rate ([1]; 50 ppm, 60 Mins.): 2.04; logarithmic reduction rate ([1]; 100 ppm, 5 Mins.): 0.38; logarithmic reduction rate ([1]; 100 ppm, 15 Mins.): 0.95; logarithmic reduction rate ([1]; 100 ppm, 60 Mins.): 2.05; logarithmic reduction rate ([1]; 200 ppm, 5 Mins.): 0.28; logarithmic reduction rate ([1]; 200 ppm, 15 Mins.): 0.92; logarithmic reduction rate ([1]; 200 ppm, 60 Mins.): 2.16; logarithmic reduction rate ([1]; 400 ppm, 5 Mins.): 0.35; logarithmic reduction rate ([1]; 400 ppm, 15 Mins.): 0.89; logarithmic reduction rate ([1]; 400 ppm, 60 Mins.): 2.29; destruction of Trichophyton mentagrophytes ([1]; long contact time (60 minutes)): around 2 powers of ten

Question: What does the source list for “trimethyl ethanolammonium coconut fatty acid ester methosulfate [Example 4]”?
Answer: logarithmic reduction factor [2, 5]: <0.80; logarithmic reduction factor [2, 6]: <0.79; logarithmic reduction factor [2, 7]: 0.91; logarithmic reduction factor [2, 8]: 1.40; logarithmic reduction factor [2, 9]: 1.19; logarithmic reduction factor [2, 10]: 3.01; logarithmic reduction factor [2, 11]: >4.80; logarithmic reduction factor [2, 12]: >5.05; logarithmic reduction factor [2, 13]: 3.43; logarithmic reduction factor [2, 14]: >4.79; logarithmic reduction factor [2, 15]: >4.80; logarithmic reduction factor [2, 16]: >5.05; logarithmic reduction factor [2, 17]: >4.80; logarithmic reduction factor [2, 18]: >4.79; logarithmic reduction factor [2, 19]: >4.80; logarithmic reduction factor [2, 20]: >5.05; logarithmic reduction factor [2, 21]: >4.80; logarithmic reduction factor [2, 22]: >4.79; logarithmic reduction factor [2, 23]: >4.80; logarithmic reduction factor [2, 24]: >5.05; logarithmic reduction factor [3, 5]: <1.51; logarithmic reduction factor [3, 6]: <1.66; logarithmic reduction factor [3, 7]: <1.46; logarithmic reduction factor [3, 8]: <1.47; logarithmic reduction factor [3, 9]: <1.51; logarithmic reduction factor [3, 10]: <1.66; logarithmic reduction factor [3, 11]: <1.46; logarithmic reduction factor [3, 12]: <1.47; logarithmic reduction factor [3, 13]: <1.51; logarithmic reduction factor [3, 14]: <1.66; logarithmic reduction factor [3, 15]: <1.46; logarithmic reduction factor [3, 16]: <3.35; logarithmic reduction factor [3, 17]: <1.51; logarithmic reduction factor [3, 18]: 3.9; logarithmic reduction factor [3, 19]: >5.66; logarithmic reduction factor [3, 20]: >5.47; logarithmic reduction factor [3, 21]: 4.02; logarithmic reduction factor [3, 22]: >5.66; logarithmic reduction factor [3, 23]: >5.66; logarithmic reduction factor [3, 24]: >5.47; logarithmic reduction factor [4, 5]: <1.51; logarithmic reduction factor [4, 6]: <1.36; logarithmic reduction factor [4, 7]: <1.38; logarithmic reduction factor [4, 8]: 1.94; logarithmic reduction factor [4, 9]: <1.51; logarithmic reduction factor [4, 10]: 1.78; logarithmic reduction factor [4, 11]: 3.03; logarithmic reduction factor [4, 12]: 4.02; logarithmic reduction factor [4, 13]: <1.51; logarithmic reduction factor [4, 14]: 3.4; logarithmic reduction factor [4, 15]: 4.38; logarithmic reduction factor [4, 16]: >5.26; logarithmic reduction factor [4, 17]: 2.33; logarithmic reduction factor [4, 18]: 4.14; logarithmic reduction factor [4, 19]: >5.38; logarithmic reduction factor [4, 20]: >5.26; logarithmic reduction factor [4, 21]: 3.12; logarithmic reduction factor [4, 22]: >5.36; logarithmic reduction factor [4, 23]: >5.38; logarithmic reduction factor [4, 24]: >5.26
